The values below come from patent US9828379B2 (priority 2013, dated 2017).

The structures appear in SMILES notation.

Test in all cases: In vitro competitive activity-based protein profiling (Table 2, % inhibition at 1 μM)
Common to all, as to assay type: biochemical

One experiment deals with T1, MAGL (Mus musculus, UniProt O35678).
T1 sequence (O35678 1-303): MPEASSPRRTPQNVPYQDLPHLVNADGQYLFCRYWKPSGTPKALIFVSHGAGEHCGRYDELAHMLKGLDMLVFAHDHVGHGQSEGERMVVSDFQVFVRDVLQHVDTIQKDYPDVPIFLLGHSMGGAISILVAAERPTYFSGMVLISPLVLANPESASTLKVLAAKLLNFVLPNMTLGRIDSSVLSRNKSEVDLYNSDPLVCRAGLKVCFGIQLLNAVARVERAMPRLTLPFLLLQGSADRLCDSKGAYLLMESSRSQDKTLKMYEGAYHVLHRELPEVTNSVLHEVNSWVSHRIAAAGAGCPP
The note with it: read-out: % Inhibition at 1 μM MAGL. The protocol: After 30 min, FP—Rh (1.0 μL, 50 μM in DMSO) was added and the mixture was incubated for another 30 min at 37° C. Reactions were quenched with SDS loading buffer (50 μL-4×) and run on SDS-PAGE.
Cell lysates were diluted with mock proteomes for use in competitive ABPP experiments.

The target of the next experiment is T2, FAAH (Mus musculus, UniProt O08914).
T2 sequence (O08914 1-579): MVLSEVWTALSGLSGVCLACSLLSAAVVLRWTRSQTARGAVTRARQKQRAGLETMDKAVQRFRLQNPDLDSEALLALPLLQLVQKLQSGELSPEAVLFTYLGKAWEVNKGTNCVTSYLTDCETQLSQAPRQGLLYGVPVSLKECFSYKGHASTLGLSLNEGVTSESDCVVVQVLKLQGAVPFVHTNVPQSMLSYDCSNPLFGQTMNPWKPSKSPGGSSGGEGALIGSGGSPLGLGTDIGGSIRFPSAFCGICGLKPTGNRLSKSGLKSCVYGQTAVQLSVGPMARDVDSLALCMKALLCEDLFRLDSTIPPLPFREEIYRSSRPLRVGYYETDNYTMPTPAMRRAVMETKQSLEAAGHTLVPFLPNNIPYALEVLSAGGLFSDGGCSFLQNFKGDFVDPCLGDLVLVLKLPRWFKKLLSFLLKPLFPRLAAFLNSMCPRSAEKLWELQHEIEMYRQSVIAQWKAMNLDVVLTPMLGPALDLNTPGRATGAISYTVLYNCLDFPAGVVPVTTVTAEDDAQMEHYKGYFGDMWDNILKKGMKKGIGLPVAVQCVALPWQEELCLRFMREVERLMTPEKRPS
The settings on record: read-out: % Inhibition at 1 μM FAAH. The procedure: (§1) After 30 min, FP—Rh (1.0 μL, 50 μM in DMSO) was added and the mixture was incubated for another 30 min at 37° C. Reactions were quenched with SDS loading buffer (50 μL-4×) and run on SDS-PAGE. Following gel imaging, serine hydrolase activity was determined by measuring fluorescent intensity of gel bands corresponding to MAGL, ABHD6 and FAAH using ImageJ 1.43 u software.
(§2) hMAGL was expressed in HEK293T cells according to previously reported methods (see Niphakis, Long, and Blankman, J. L., et al. (2007) Chem. Biol. 14:1347-1356). Cell lysates were diluted with mock proteomes for use in competitive ABPP experiments.

A further experiment deals with T3, ABHD6 (Mus musculus, UniProt Q8R2Y0).
T3 sequence (Q8R2Y0 1-336): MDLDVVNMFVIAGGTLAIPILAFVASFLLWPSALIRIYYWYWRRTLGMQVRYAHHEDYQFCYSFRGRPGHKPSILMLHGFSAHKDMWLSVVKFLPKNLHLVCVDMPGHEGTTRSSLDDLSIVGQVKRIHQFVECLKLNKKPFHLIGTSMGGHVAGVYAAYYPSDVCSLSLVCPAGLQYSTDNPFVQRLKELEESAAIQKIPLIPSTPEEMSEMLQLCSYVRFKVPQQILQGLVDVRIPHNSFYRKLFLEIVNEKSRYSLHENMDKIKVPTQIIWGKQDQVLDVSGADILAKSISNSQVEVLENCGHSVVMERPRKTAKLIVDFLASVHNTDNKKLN
The note with it: read-out: % Inhibition at 1 μM ABHD6. The procedure:
as §1, §2

As a reminder, the inhibition is the change of the read-out against control, counted positive when it falls.

For `CC(=O)N1CCN(c2cc(F)ccc2CN2CC3CN(C(=O)ON4C(=O)CCC4=O)CC3C2)CC1` (stereo not drawn) [Example 92, 2,5-Dioxopyrrolidin-1-yl 5-[[2-(4-acetylpiperazin-1-yl)-4-fluorophenyl]methyl]-octahydropyrrolo[3,4-c]pyrrole-2-carboxylate], the inhibition at 1 µM at MAGL, at FAAH and at ABHD6 was less than 25% throughout.

Regarding `CC(=O)N1CCC(c2nn(C(C)C)cc2CN2CC3CN(C(=O)ON4C(=O)CCC4=O)CC3C2)CC1` (stereo not drawn) [Example 119, 2,5-Dioxopyrrolidin-1-yl 5-[[3-(1-acetylpiperidin-4-yl)-1-(propan-2-yl)-1H-pyrazol-4-yl]methyl]-octahydropyrrolo[3,4-c]pyrrole-2-carboxylate], the inhibition at 1 µM on MAGL, on FAAH and on ABHD6 was less than 25% throughout.

As for `CCN1CCN(c2c(C)cccc2CN2CC3CN(C(=O)ON4C(=O)CCC4=O)CC3C2)CC1` (stereo not drawn) [Example 139, 2,5-dioxopyrrolidin-1-yl 5-[[2-(4-ethylpiperazin-1-yl)-3-methylphenyl]methyl]-octahydropyrrolo[3,4-c]pyrrole-2-carboxylate], the inhibition at 1 µM on MAGL, at FAAH and on ABHD6 was less than 25% in each case.

Turning to `Cn1nc(-c2ccccc2)cc1CN1CC2CN(C(=O)ON3C(=O)CCC3=O)CC2C1` (stereo not drawn) [Example 197, 2,5-dioxopyrrolidin-1-yl 5-((1-methyl-3-phenyl-1H-pyrazol-5-yl)methyl)hexahydropyrrolo[3,4-c]pyrrole-2(1H)-carboxylate], the inhibition at 1 µM at MAGL, on FAAH and on ABHD6 was less than 25% in each case.

In the case of `CC(=O)N1CCC(n2nc(C)cc2CN2CC3CN(C(=O)ON4C(=O)CCC4=O)CC3C2)CC1` (stereo not drawn) [Example 122, 2,5-Dioxopyrrolidin-1-yl 5-[[1-(1-acetylpiperidin-4-yl)-3-methyl-1H-pyrazol-5-yl]methyl]-octahydropyrrolo[3,4-c]pyrrole-2-carboxylate], the inhibition at 1 µM on MAGL, on FAAH and at ABHD6 was less than 25% in each case.

Regarding `CC1COCCN1c1ccc(CN2CC3CN(C(=O)ON4C(=O)CCC4=O)CC3C2)c(F)c1` (stereo not drawn) [Example 100, 2,5-Dioxopyrrolidin-1-yl 5-[[2-fluoro-4-(3-methylmorpholin-4-yl)phenyl]methyl]-octahydropyrrolo[3,4-c]pyrrole-2-carboxylate], the inhibition at 1 µM was 25 to 75% at MAGL, less than 25% on FAAH and less than 25% on ABHD6.

Turning to `O=C(ON1C(=O)CCC1=O)N1CC2CN(Cc3ccc(Cl)cc3N3CCC3)CC2C1` (stereo not drawn) [Example 113, 2,5-Dioxopyrrolidin-1-yl 5-[[2-(azetidin-1-yl)-4-chlorophenyl]methyl]-octahydropyrrolo[3,4-c]pyrrole-2-carboxylate], the inhibition at 1 µM at MAGL is greater than 75%; at FAAH, less than 25%; on ABHD6 it was 25 to 75%.

On to `CC(C)n1cc(CN2CC3CN(C(=O)ON4C(=O)CCC4=O)CC3C2)c(C2CCN(S(C)(=O)=O)CC2)n1` (stereo not drawn) [Example 120, 2,5-Dioxopyrrolidin-1-yl 5-[[3-(1-methanesulfonylpiperidin-4-yl)-1-(propan-2-yl)-1H-pyrazol-4-yl]methyl]-octahydropyrrolo[3,4-c]pyrrole-2-carboxylate], for which the inhibition at 1 µM on MAGL, at FAAH and on ABHD6 was less than 25% in each case.

As for `CC(=O)N1CCN(c2cc(Cl)ccc2CN2CC3CN(C(=O)ON4C(=O)CCC4=O)CC3C2)CC1` (stereo not drawn) [Example 96, 2,5-Dioxopyrrolidin-1-yl 5-[[2-(4-acetylpiperazin-1-yl)-4-chlorophenyl]methyl]-octahydropyrrolo[3,4-c]pyrrole-2-carboxylate], the inhibition at 1 µM at MAGL, at FAAH and on ABHD6 was less than 25% each time.

Turning to `O=C(ON1C(=O)CCC1=O)N1CC2CN(Cc3ccc(Cl)cc3N3Cc4cccnc4C3)CC2C1` (stereo not drawn) [Example 107, 2,5-Dioxopyrrolidin-1-yl 5-[(4-chloro-2-[5H,6H,7H-pyrrolo[3,4-b]pyridin-6-yl]phenyl)methyl]-octahydropyrrolo[3,4-c]pyrrole-2-carboxylate], the inhibition at 1 µM at MAGL, at FAAH and on ABHD6 was 25 to 75% in each case.

For `O=C(ON1C(=O)CCC1=O)N1CC2CN(Cc3ccc(Cl)cc3N3CCCC3)CC2C1` (stereo not drawn) [Example 94, 2,5-Dioxopyrrolidin-1-yl 5-[[4-chloro-2-(pyrrolidin-1-yl)phenyl]methyl]-octahydropyrrolo[3,4-c]pyrrole-2-carboxylate], the inhibition at 1 µM was 25 to 75% on MAGL, 25 to 75% at FAAH and less than 25% on ABHD6.

Take `CC(=O)N1CCN(c2cccc(CN3CC4CN(C(=O)ON5C(=O)CCC5=O)CC4C3)c2C)CC1` (stereo not drawn) [Example 143, 2,5-dioxopyrrolidin-1-yl 5-[[3-(4-acetylpiperazin-1-yl)-2-methylphenyl]methyl]-octahydropyrrolo[3,4-c]pyrrole-2-carboxylate]: the inhibition at 1 µM on MAGL, at FAAH and on ABHD6 was less than 25% each time.

On to `CC(=O)N1CCC(c2nn(C)cc2CN2CC3CN(C(=O)ON4C(=O)CCC4=O)CC3C2)CC1` (stereo not drawn) [Example 116, 2,5-Dioxopyrrolidin-1-yl 5-[[3-(1-acetylpiperidin-4-yl)-1-methyl-1H-pyrazol-4-yl]methyl]-octahydropyrrolo[3,4-c]pyrrole-2-carboxylate], for which the inhibition at 1 µM on MAGL, on FAAH and on ABHD6 was less than 25% throughout.

Take `O=C(ON1C(=O)CCC1=O)N1CC2CN(Cc3ccc(Cl)cc3N3CCOCC3)CC2C1` (stereo not drawn) [Example 93, 2,5-Dioxopyrrolidin-1-yl 5-[[4-chloro-2-(morpholin-4-yl)phenyl]methyl]-octahydropyrrolo[3,4-c]pyrrole-2-carboxylate]: the inhibition at 1 µM on MAGL was 25 to 75%; on FAAH, less than 25%; on ABHD6, 25 to 75%.

For the compound `CC(C)n1cc(CN2CC3CN(C(=O)ON4C(=O)CCC4=O)CC3C2)c(-c2ccccc2Cl)n1` (stereo not drawn) [Example 118, 2,5-Dioxopyrrolidin-1-yl 5-[[3-(2-chlorophenyl)-1-(propan-2-yl)-1H-pyrazol-4-yl]methyl]-octahydropyrrolo[3,4-c]pyrrole-2-carboxylate], the inhibition at 1 µM on MAGL is 25 to 75%; on FAAH, less than 25%; at ABHD6, 25 to 75%.

On to `CC(=O)N1CCN(c2cc(C(C)C)ccc2CN2CC3CN(C(=O)ON4C(=O)CCC4=O)CC3C2)CC1` (stereo not drawn) [Example 99, 2,5-Dioxopyrrolidin-1-yl 5-[[2-(4-acetylpiperazin-1-yl)-4-(propan-2-yl)phenyl]methyl]-octahydropyrrolo[3,4-c]pyrrole-2-carboxylate], for which the inhibition at 1 µM at MAGL, at FAAH and at ABHD6 was less than 25% in each case.

`O=C(ON1C(=O)CCC1=O)N1CC2CN(Cc3ccc(F)cc3N3CCCC3)CC2C1` (stereo not drawn) [Example 90, 2,5-Dioxopyrrolidin-1-yl 5-[[4-fluoro-2-(pyrrolidin-1-yl)phenyl]methyl]-octahydropyrrolo[3,4-c]pyrrole-2-carboxylate]: the inhibition at 1 µM at MAGL was 25 to 75%; at FAAH it was 25 to 75%; at ABHD6 it was less than 25%.
